Experimental data reported in ChEMBL document CHEMBL1140714, “In search of novel agents for therapy of tropical diseases and human immunodeficiency virus” (J Med Chem, 2008).
Calls of active or inactive are those of the source. No cut-off for these calls is given here.

Columns and labels:
[1] = Cytotoxicity against mouse J774.1 cells after 48 hrs; format: cell-based; settings: read-out: ED50
Plasmodium falciparum [2] = assay: Antiplasmodial activity against Plasmodium falciparum NF54 after 24 hrs; format: functional, organism-based; settings: NF54, 24 h
Plasmodium falciparum [3] = assay: Inhibition of parasitemia in chloroquine-sensitive Plasmodium falciparum NF54 infected C57BL/6 mice (Mus musculus) after 2 days at 20 uM; format: functional; parameters: scale not given: the % may be the effect or the level left
Leishmania major = assay: Antileishmanial activity against Leishmania major MHOM/IL/81/FE/BNI infected in BALB/c mouse; format: functional
Plasmodium falciparum [4] = assay: Antiplasmodial activity against Plasmodium falciparum NF54 after 72 hrs; format: functional, organism-based; settings: NF54, 72 h
Plasmodium falciparum [5] = assay: Inhibition of parasitemia in chloroquine-sensitive Plasmodium falciparum NF54 infected C57BL/6 mice (Mus musculus) after 1 day at 40 uM; format: functional; parameters: scale not given: the % may be the effect or the level left
Mus musculus [6] = assay: Increase in survival of chloroquine-sensitive Plasmodium falciparum NF54 infected intravenously dosed C57BL/6 mice (Mus musculus); format: functional, organism-based
Staphylococcus aureus = assay: Antibacterial activity against Staphylococcus aureus assessed as inhibition of biofilm formation; format: functional, organism-based
Plasmodium falciparum [7] = assay: Inhibition of parasitemia in chloroquine-sensitive Plasmodium falciparum NF54 infected C57BL/6 mice (Mus musculus) after 4 days; format: functional; parameters: scale not given: the % may be the effect or the level left
Plasmodium falciparum [8] = assay: Antiplasmodial activity against Plasmodium falciparum NF54 infected mice (Mus musculus) after 72 hrs; format: functional, organism-based; settings: NF54, 72 h
[9] = test system: Human immunodeficiency virus 1; assay: Antiviral activity against HIV1 NL4/3 replication in PM1 cells at 6 uM; format: functional, organism-based
[10] = test system: Trypanosoma brucei brucei; assay: Antitrypanosomal activity against Trypanosoma brucei brucei TC221; format: functional; settings: read-out: ED50 (the source's name)
Mus musculus [11] = assay: Increase in survival of chloroquine-sensitive Plasmodium falciparum NF54 infected perorally dosed C57BL/6 mice (Mus musculus); format: functional, organism-based
[12] = test system: Human immunodeficiency virus 1; assay: Antiviral activity against HIV1 BaL replication in PM1 cells at 5 uM; format: functional, organism-based

Row | IC50 (Plasmodium falciparum [2]) | IC50 (Plasmodium falciparum [4]) | IC50 (Plasmodium falciparum [8]) | EC50 [10] | SMILES | CC50 at 48 h [1] | Activity (Plasmodium falciparum [3]) | ED50 (Leishmania major) | Activity (Plasmodium falciparum [5]) | Activity (Mus musculus [6]) | Activity (Staphylococcus aureus) | Activity (Plasmodium falciparum [7]) | Activity [9] | Activity (Mus musculus [11]) | Activity [12]
1 | 10.2 µM | 10.9 µM | – | – | COC(=O)C1C(=O)C(C(=O)OC)[C@H](c2ccccn2)N(Cc2ccccc2)[C@@H]1c1ccccn1 (stereo partly specified) | 34 µM | 0% | 55.99 µM | 0% | Active | inactive | – | – | – | –
2 | – | – | 11 µM | 3.06 µM | C=CCN1[C@H](c2ccc([N+](=O)[O-])cc2)C(C(=O)OCC)C(=O)C(C(=O)OCC)[C@@H]1c1ccc([N+](=O)[O-])cc1 (stereo partly specified) | > 100 µM | – | – | – | – | inactive | 0% | Active | Active | Active
